Laboratory results as given in patent publication US5840684A, “Glycopeptide antibiotic derivatives” (Eli Lilly and Company, priority 1995, dated 1998).
≈ marks a conversion by molar mass, not a printed value.

Columns and labels:
[1] = tested on: vancomycin-resistant enterococci; assay: broth micro-dilution, mean geometric MIC; assay type: cell-based, Enterococcus faecium and Enterococcus faecalis; conditions: enterococci, 24-hour incubation
[2] = tested on: Staphylococcus aureus S13E; assay type: cell-based
Experimental: (§1) The MIC's were determined using a standard broth micro-dilution assay.

[3] = tested on: Streptococcus pneumoniae; assay: mouse protection, experimentally-induced infection; assay type: in vivo; conditions: mice infected with Streptococcus pneumoniae, two doses
[4] = tested on: vancomycin-susceptible enterococci; assay: broth micro-dilution, mean geometric MIC; assay type: cell-based, Enterococcus faecium and Enterococcus faecalis; conditions: enterococci, 24-hour incubation
[5] = tested on: Staphylococcus epidermidis 270; assay: broth micro-dilution MIC; assay type: cell-based
Experimental: (§2) The formula I compounds have in vitro and in vivo activity against Gram-positive pathogenic bacteria. The MIC's were determined using a standard broth micro-dilution assay.

[6] = tested on: Entercoccus faecium 2041; assay: broth micro-dilution MIC; assay type: cell-based; conditions: Entercoccus faecium 2041
Experimental: as §2

[7] = tested on: Streptococcus pneumoniae P1; assay: broth micro-dilution MIC; assay type: cell-based
Experimental: as §2

[8] = tested on: Staphylococcus haemolyticus 415; assay: broth micro-dilution MIC; assay type: cell-based
Experimental: as §2

[9] = tested on: Enterococcus gallinarum 245; assay: broth micro-dilution MIC; assay type: cell-based; conditions: Enterococcus gallinarum 245
Experimental: as §2

[10] = tested on: Entercoccus faecium 180-1; assay: broth micro-dilution MIC; assay type: cell-based
Experimental: as §1

[11] = tested on: Entercoccus faecium 276; assay: broth micro-dilution MIC; assay type: cell-based
Experimental: as §1

[12] = tested on: Staphylococcus aureus 447; assay: broth micro-dilution MIC; assay type: cell-based
Experimental: as §1

[13] = tested on: Staphylococcus aureus X778; assay: broth micro-dilution MIC; assay type: cell-based
Experimental: as §1

[14] = tested on: Staphylococcus aureus SA1199; assay: broth micro-dilution MIC; assay type: cell-based
Experimental: as §1

[15] = tested on: Staphylococcus aureus SA1199A; assay: broth micro-dilution MIC; assay type: cell-based
Experimental: as §1

[16] = tested on: Streptococcus pyogenes; assay: mouse protection, experimentally-induced infection; assay type: in vivo; conditions: mice infected with Streptococcus pyogenes, two doses
[17] = tested on: Staphylococcus aureus SA1199B; assay type: cell-based
Experimental: as §1

[18] = tested on: Staphylococcus haemolyticus 105; assay: broth micro-dilution MIC; assay type: cell-based
Experimental: as §2

[19] = tested on: Entercoccus faecium 180; assay: broth micro-dilution MIC; assay type: cell-based; conditions: Entercoccus faecium 180
Experimental: as §2

[20] = tested on: Staphylococcus aureus 446; assay: broth micro-dilution MIC; assay type: cell-based
Experimental: as §1

[21] = tested on: Staphylococcus aureus X400; assay: broth micro-dilution MIC; assay type: cell-based
Experimental: as §1

[22] = tested on: Streptococcus pyogenes C203; assay: broth micro-dilution MIC; assay type: cell-based
Experimental: as §1

[23] = tested on: Staphylococcus aureus 489; assay: broth micro-dilution MIC; assay type: cell-based
Experimental: as §1

| Compound | mean geometric MIC, Vancomycin Resistant Strains [1] | MIC [2] | ED50 [3] | mean geometric MIC, Vancomycin Sensitive Strains [4] | MIC [5] | MIC [6] | MIC [7] | MIC [8] | MIC [9] | MIC [10] | MIC [11] | MIC [12] | MIC [13] | MIC [14] | MIC [15] | ED50 [16] | MIC [17] | MIC [18] | MIC [21] | MIC [22] | also measured |
| --- | --- | --- | --- | --- | --- | --- | --- | --- | --- | --- | --- | --- | --- | --- | --- | --- | --- | --- | --- | --- | --- |
| CNC(CC(C)C)C(=O)NC1C(=O)NC(CC(N)=O)C(=O)NC2C(=O)NC3C(=O)NC(C(=O)NC(C(=O)O)c4cc(O)cc(O)c4-c4cc3ccc4O)C(OC3CC(C)(N)C(O)C(C)O3)c3ccc(c(Cl)c3)Oc3cc2cc(c3OC2OC(CO)C(O)C(O)C2OC2CC(C)(NCc3ccc(-c4ccc([N+](=O)[O-])cc4)cc3)C(O)C(C)O2)Oc2ccc(cc2Cl)C1O (stereo not drawn) [Compound 64] | 0.71 mg/L | 2 mg/L (≈ 1.11 µM) | < 0.031 mg/kg/2 | 0.077 mg/L | 0.5 mg/L (≈ 0.277 µM) | ≤ 0.06 mg/L | ≤ 0.06 mg/L | 2 mg/L (≈ 1.11 µM) | 2 mg/L (≈ 1.11 µM) | ≤ 0.06 mg/L | 0.5 mg/L (≈ 0.277 µM) | 0.5 mg/L (≈ 0.277 µM) | 2 mg/L (≈ 1.11 µM) | 1 mg/L (≈ 0.554 µM) | ≤ 0.06 mg/L | 0.044 mg/kg/2 |  |  |  |  |  |
| CNC(CC(C)C)C(=O)NC1C(=O)NC(CC(N)=O)C(=O)NC2C(=O)NC3C(=O)NC(C(=O)NC(C(=O)O)c4cc(O)cc(O)c4-c4cc3ccc4O)C(OC3CC(C)(N)C(O)C(C)O3)c3ccc(c(Cl)c3)Oc3cc2cc(c3OC2OC(CO)C(O)C(O)C2OC2CC(C)(NCc3ccc(-c4ccc(F)cc4)cc3)C(O)C(C)O2)Oc2ccc(cc2Cl)C1O (stereo not drawn) [Compound 211] | 0.35 mg/L | 0.5 mg/L (≈ 0.281 µM) | 0.041 mg/kg/2 | 0.024 mg/L | 0.5 mg/L (≈ 0.281 µM) | ≤ 0.06 mg/L | ≤ 0.06 mg/L | 0.5 mg/L (≈ 0.281 µM) | ≤ 0.06 mg/L | ≤ 0.06 mg/L | ≤ 0.06 mg/L | 0.5 mg/L (≈ 0.281 µM) | 1 mg/L (≈ 0.563 µM) | 0.5 mg/L (≈ 0.281 µM) |  | < 0.031 mg/kg/2 | 1 mg/L (≈ 0.563 µM) | 0.5 mg/L (≈ 0.281 µM) | 0.5 mg/L (≈ 0.281 µM) | ≤ 0.06 mg/L | MIC [19]: ≤ 0.06 mg/L; MIC [20]: 1 mg/L (≈ 0.563 µM) |
| CCOc1cc(CNC2(C)CC(OC3C(Oc4c5cc6cc4Oc4ccc(cc4Cl)C(OC4CC(C)(N)C(O)C(C)O4)C4NC(=O)C(NC(=O)C6NC(=O)C(CC(N)=O)NC(=O)C(NC(=O)C(CC(C)C)NC)C(O)c6ccc(c(Cl)c6)O5)c5ccc(O)c(c5)-c5c(O)cc(O)cc5C(C(=O)O)NC4=O)OC(CO)C(O)C3O)OC(C)C2O)ccc1OCC1CCCCC1 (stereo not drawn) [Compound 105] | 0.84 mg/L | 0.5 mg/L (≈ 0.272 µM) | 0.041 mg/kg/2 | 0.062 mg/L |  |  | ≤ 0.06 mg/L | 1 mg/L (≈ 0.544 µM) | 1 mg/L (≈ 0.544 µM) | ≤ 0.06 mg/L |  | 0.5 mg/L (≈ 0.272 µM) | 0.5 mg/L (≈ 0.272 µM) | 1 mg/L (≈ 0.544 µM) |  | 0.12 mg/kg/2 | 0.5 mg/L (≈ 0.272 µM) | 1 mg/L (≈ 0.544 µM) | 0.5 mg/L (≈ 0.272 µM) | ≤ 0.06 mg/L | MIC [23]: 0.5 mg/L (≈ 0.272 µM) |
| CNC(CC(C)C)C(=O)NC1C(=O)NC(CC(N)=O)C(=O)NC2C(=O)NC3C(=O)NC(C(=O)NC(C(=O)O)c4cc(O)cc(O)c4-c4cc3ccc4O)C(OC3CC(C)(N)C(O)C(C)O3)c3ccc(c(Cl)c3)Oc3cc2cc(c3OC2OC(CO)C(O)C(O)C2OC2CC(C)(NCc3ccc(OCc4ccc([N+](=O)[O-])cc4)cc3)C(O)C(C)O2)Oc2ccc(cc2Cl)C1O (stereo not drawn) [Compound 131] | 0.84 mg/L | 1 mg/L (≈ 0.545 µM) | 0.077 mg/kg/2 | 0.028 mg/L | 1 mg/L (≈ 0.545 µM) | ≤ 0.06 mg/L | ≤ 0.06 mg/L | 2 mg/L (≈ 1.09 µM) | 2 mg/L (≈ 1.09 µM) | ≤ 0.06 mg/L |  | 1 mg/L (≈ 0.545 µM) | 0.5 mg/L (≈ 0.273 µM) |  | ≤ 0.06 mg/L | < 0.031 mg/kg/2 | 1 mg/L (≈ 0.545 µM) | 1 mg/L (≈ 0.545 µM) | 1 mg/L (≈ 0.545 µM) | ≤ 0.06 mg/L | MIC [19]: ≤ 0.06 mg/L; MIC [20]: 2 mg/L (≈ 1.09 µM); MIC [23]: 1 mg/L (≈ 0.545 µM) |
